Earlier results, collected in patent US20230035823A1, “ANTIHISTAMINE AND ANTI-MICROBIAL NASAL SOLUTIONS AND RELATED METHODS” (Xlear, Inc., priority 2021, published 2023).

Tests used:
[1] = regular consumption
Streptococcus pneumonia = conditions: in vitro, during logarithmic growth phase
[2] = in vivo

In the case of `OC[C@@H](O)[C@H](O)[C@@H](O)CO` [Xylitol, xylitol], the “incidence of dental caries” value [1] is listed as “reduce the incidence of dental caries”, the “growth of Streptococcus pneumonia” value (Streptococcus pneumonia) is listed as “inhibit the growth” and the moisturizing nasal passages [2] is listed as “very effective”.
